From PMC4476799, “Englerin A Agonizes the TRPC4/C5 Cation Channels to Inhibit Tumor Cell Line Proliferation” (PLoS ONE, 2015)
Like-named read-outs stand apart in the source and are kept apart here.

Test system: cancer cell lines from the cancer cell line encyclopedia (CCLE)
Test: Cell line profiling (CLiP) proliferation experiment
Format: cell-based
Parameters: key to Compound Activity (1-inactive;2-active): 1-inactive; 2-active; ACTIVITY_AREA: scale not given here; AMAX: unit not given here
Settings: for IC50: read-out: Crossing Point; for EC50: read-out: Inflection Point
Method: Compound profiling experiment and data analysis was performed as previously described. Data was imported and plotted using the Tibco Spotfire DXP application. Lines were categorized as sensitive, intermediate and refractory as follows: Amax<-40 & Inflection Point <2 ~ Sensitive, Amax>-20 & Inflection Point >10 ~ Refractory, all else were called Intermediate. Cancer Cell line HG-U133 Plus 2 data was processed and normalized as described. […] Five sets of refractory cell lines were generated from the pool of refractory cell lines trying to match the lineage composition of the set of sensitive cell lines. The limma package was used as previously described to perform the statistical comparison.

[1] = cell line GA-10, haematopoietic_and_lymphoid_tissue
[2] = cell line GAMG, central_nervous_system
[3] = cell line GI-1 (central_nervous_system, gliosarcoma)
[4] = cell line GI-1, central_nervous_system
[5] = cell line GMS-10, central_nervous_system
[6] = cell line GOS-3 (central_nervous_system, astrocytoma)
[7] = cell line GOS-3, central_nervous_system
[8] = cell line GP2d, large_intestine
[9] = cell line GRANTA-519, haematopoietic_and_lymphoid_tissue
[10] = cell line H4, central_nervous_system
[11] = cell line HARA (lung, squamous_cell_carcinoma)
[12] = cell line HH, haematopoietic_and_lymphoid_tissue
[13] = cell line Hs 611.T, haematopoietic_and_lymphoid_tissue
[14] = cell line MCAS (ovary, mucinous_carcinoma)
[15] = cell line MOG-G-UVW (central_nervous_system)
[16] = cell line NB-1 (autonomic_ganglia)
[17] = cell line NB-4 (haematopoietic_and_lymphoid_tissue)
[18] = cell line SNU-119, ovary, adenocarcinoma
[19] = cell line SNU-626 (central_nervous_system, astrocytoma_Grade_IV)
[20] = cell line SNU-1079, biliary_tract

CC(C)[C@@]12C[C@@H](O)[C@@](C)(O1)[C@@H]1CC[C@@H](C)[C@H]1[C@@H]2OC(=O)/C=C/c1ccccc1 [Englerin B]
ACTIVITY_AREA [1]: 28.18
AMAX [1]: 8.5
RESPONSE [1]: REFRACTORY
ACTIVITY_AREA [2]: 50.48
AMAX [2]: -45.21
RESPONSE [2]: INTERMEDIATE
ACTIVITY_AREA (cell line GCIY, stomach): 49.94
AMAX (cell line GCIY, stomach): -70.92
RESPONSE (cell line GCIY, stomach): INTERMEDIATE
Compound Activity (1-inactive;2-active) (cell line GCT (soft_tissue, NS)): 1
ACTIVITY_AREA (cell line GCT, soft_tissue): 17.95
AMAX (cell line GCT, soft_tissue): -52.9
RESPONSE (cell line GCT, soft_tissue): INTERMEDIATE
IC50 (cell line GCT, soft_tissue): 27.1 µM
EC50 (cell line GCT, soft_tissue): 16.4 µM
Compound Activity (1-inactive;2-active) [3]: 1
IC50 [3]: > 30 µM
ACTIVITY_AREA [4]: 112.12
AMAX [4]: -25.87
RESPONSE [4]: INTERMEDIATE
IC50 [4]: > 30 µM
ACTIVITY_AREA [5]: 21.47
AMAX [5]: -32.03
RESPONSE [5]: INTERMEDIATE
Compound Activity (1-inactive;2-active) [6]: 1
IC50 [6]: > 30 µM
ACTIVITY_AREA [7]: 26.28
AMAX [7]: -31.04
RESPONSE [7]: INTERMEDIATE
IC50 [7]: > 30 µM
ACTIVITY_AREA [8]: 32.63
AMAX [8]: -48.04
RESPONSE [8]: INTERMEDIATE
ACTIVITY_AREA (cell line GR-M, skin): 48.68
AMAX (cell line GR-M, skin): -36.64
RESPONSE (cell line GR-M, skin): INTERMEDIATE
IC50 (cell line GR-M, skin): > 30 µM
IC50 (cell line GR-M): > 30 µM
ACTIVITY_AREA [9]: 14.82
AMAX [9]: 16.83
RESPONSE [9]: REFRACTORY
ACTIVITY_AREA [10]: 16.33
AMAX [10]: -3.42
RESPONSE [10]: REFRACTORY
IC50 [10]: > 30 µM
IC50 (cell line H4): > 30 µM
Compound Activity (1-inactive;2-active) [11]: 1
IC50 [11]: 15.9 µM
ACTIVITY_AREA (cell line HARA, lung): 73.57
AMAX (cell line HARA, lung): -72.32
RESPONSE (cell line HARA, lung): INTERMEDIATE
IC50 (cell line HARA, lung): 15.9 µM
Compound Activity (1-inactive;2-active) (cell line HCC-15 (lung, squamous_cell_carcinoma)): 1
ACTIVITY_AREA (cell line HCC-15, lung): 57.49
AMAX (cell line HCC-15, lung): -70.57
RESPONSE (cell line HCC-15, lung): INTERMEDIATE
Compound Activity (1-inactive;2-active) (cell line HCC-44 (lung, adenocarcinoma)): 1
RESPONSE (cell line HCC-44, lung): INTERMEDIATE
RESPONSE (cell line HCC-366, lung): REFRACTORY
Compound Activity (1-inactive;2-active) (cell line HCC-1171 (lung, non_small_cell_carcinoma)): 1
ACTIVITY_AREA (cell line HCC-1171, lung): 53.16
AMAX (cell line HCC-1171, lung): -52.03
RESPONSE (cell line HCC-1171, lung): INTERMEDIATE
IC50 (cell line HEC-59, endometrium): 19.1 µM
IC50 (cell line HEC-151, endometrium): 16.5 µM
IC50 (cell line HEC-265, endometrium): 27.1 µM
EC50 (cell line HEC-265, endometrium): 27.1 µM
Compound Activity (1-inactive;2-active) (cell line HEL 92.1.7 (haematopoietic_and_lymphoid_tissue, acute_myeloid_leukaemia)): 1
IC50 [12]: 10.1 µM
EC50 [12]: 9.47 µM
IC50 (cell line HLC-1, lung): > 30 µM
IC50 (cell line HLC-1): > 30 µM
IC50 (cell line HLF, liver): > 30 µM
EC50 (cell line HLF, liver): 16.8 µM
IC50 (cell line HLF): > 30 µM
IC50 (cell line HMC-1-8, breast): 29.7 µM
Compound Activity (1-inactive;2-active) (cell line HPB-ALL (haematopoietic_and_lymphoid_tissue, acute_lymphoblastic_T_cell_leukaemia)): 1
IC50 (cell line HT, haematopoietic_and_lymphoid_tissue): > 30 µM
IC50 (cell line HT): > 30 µM
IC50 (cell line HTK-, haematopoietic_and_lymphoid_tissue): 28.6 µM
IC50 (cell line Hs 571.T, ovary): 19.6 µM
EC50 (cell line Hs 571.T, ovary): 19.6 µM
IC50 [13]: 20.9 µM
EC50 [13]: 20.9 µM
IC50 (cell line Hs 729, soft_tissue): > 30 µM
IC50 (cell line Hs 729): > 30 µM
IC50 (cell line Hs 936.T, skin): > 30 µM
EC50 (cell line Hs 936.T, skin): 7.96 µM
IC50 (cell line Hs 936.T): > 30 µM
IC50 (cell line Hs 939.T, skin): > 30 µM
IC50 (cell line Hs 939.T): > 30 µM
IC50 (cell line Hs 940.T, skin): > 30 µM
IC50 (cell line Hs 944.T, skin): 20.6 µM
EC50 (cell line Hs 944.T, skin): 17.1 µM
IC50 (cell line HuG1-N, stomach): 10.9 µM
IC50 (cell line J82): > 30 µM
IC50 (cell line KLE): > 30 µM
Compound Activity (1-inactive;2-active) (cell line Loucy (haematopoietic_and_lymphoid_tissue, acute_lymphoblastic_T_cell_leukaemia)): 1
Compound Activity (1-inactive;2-active) (cell line MC116 (haematopoietic_and_lymphoid_tissue, B_cell_lymphoma_unspecified)): 1
Compound Activity (1-inactive;2-active) [14]: 1
IC50 [14]: > 30 µM
Compound Activity (1-inactive;2-active) (cell line MDA-MB-231 (breast, NS)): 1
Compound Activity (1-inactive;2-active) (cell line MDA-MB-453 (breast, NS)): 1
Compound Activity (1-inactive;2-active) (cell line MEC-1 (haematopoietic_and_lymphoid_tissue, chronic_lymphocytic_leukaemia-small_lymphocytic_lymphoma)): 1
IC50 (cell line MEL-HO (skin)): > 30 µM
IC50 (cell line MEL-HO): > 30 µM
IC50 (cell line MHH-NB-11 (autonomic_ganglia)): 26.9 µM
IC50 (cell line MJ (haematopoietic_and_lymphoid_tissue)): 9.13 µM
IC50 [15]: > 30 µM
EC50 [15]: 10.2 µM
IC50 (cell line MOG-G-UVW): > 30 µM
Compound Activity (1-inactive;2-active) (cell line MOLT-16 (haematopoietic_and_lymphoid_tissue, acute_lymphoblastic_T_cell_leukaemia)): 1
Compound Activity (1-inactive;2-active) (cell line MONO-MAC-6 (haematopoietic_and_lymphoid_tissue, acute_myeloid_leukaemia)): 1
IC50 (cell line MOR/CPR (lung)): 28.3 µM
EC50 (cell line MOR/CPR (lung)): 12.9 µM
EC50 (cell line MOR/CPR): 12.9 µM
Compound Activity (1-inactive;2-active) (cell line MeWo (skin, NS)): 1
IC50 (cell line Mel285 (eye)): > 30 µM
EC50 (cell line Mel285 (eye)): 13.8 µM
IC50 (cell line Mel285): > 30 µM
IC50 [16]: 22.3 µM
EC50 [16]: 22.3 µM
IC50 [17]: 18.5 µM
EC50 [17]: 11.5 µM
Compound Activity (1-inactive;2-active) (cell line NCI-H1048 (lung, small_cell_carcinoma)): 1
Compound Activity (1-inactive;2-active) (cell line NCI-H1299 (lung, non_small_cell_carcinoma)): 1
IC50 (cell line NCI-H1341 (lung)): 15 µM
EC50 (cell line NCI-H1341 (lung)): 15 µM
Compound Activity (1-inactive;2-active) (cell line NCI-H1355 (lung, adenocarcinoma)): 1
Compound Activity (1-inactive;2-active) (cell line NCI-H1792 (lung, adenocarcinoma)): 1
Compound Activity (1-inactive;2-active) (cell line NCI-H2073 (lung, adenocarcinoma)): 1
IC50 (cell line NCI-H2106): > 30 µM
IC50 (cell line NCI-H2330): > 30 µM
IC50 (cell line OC 316): > 30 µM
IC50 (cell line OMM2.3): > 30 µM
EC50 (cell line OMM2.3): 13.6 µM
IC50 (cell line OMM2.5): > 30 µM
IC50 (cell line OV7): > 30 µM
IC50 (cell line OVISE): 17.9 µM
IC50 (cell line PC-3): 25.9 µM
IC50 (cell line PE/CA-PJ41 (clone D2)): 25.8 µM
IC50 (cell line PEER): 13.5 µM
IC50 (cell line RCC10RGB): > 30 µM
IC50 (cell line RCH-ACV): 15.6 µM
EC50 (cell line RCH-ACV): 12.1 µM
IC50 (cell line RD): > 30 µM
IC50 (cell line RERF-LC-AI): > 30 µM
EC50 (cell line RERF-LC-AI): 17.9 µM
IC50 (cell line RI-1): 9.99 µM
EC50 (cell line RI-1): 9.99 µM
IC50 (cell line RKN): > 30 µM
IC50 (cell line RKO): 14.7 µM
EC50 (cell line RKO): 13.1 µM
IC50 (cell line RL): 12.5 µM
EC50 (cell line RL): 11.8 µM
IC50 (cell line RMUG-S): > 30 µM
IC50 (cell line Reh): 21.5 µM
EC50 (cell line Reh): 21.5 µM
IC50 (cell line SEM, haematopoietic_and_lymphoid_tissue, acute_lymphoblastic_B_cell_leukaemia): 14.2 µM
Compound Activity (1-inactive;2-active) (cell line SF-295 (central_nervous_system, astrocytoma_Grade_IV)): 1
IC50 (cell line SH-4, skin): > 30 µM
Compound Activity (1-inactive;2-active) (cell line SK-N-SH (autonomic_ganglia, NS)): 1
IC50 (cell line SNG-M, endometrium, adenocarcinoma): > 30 µM
IC50 [18]: > 30 µM
EC50 [18]: 27.2 µM
Compound Activity (1-inactive;2-active) (cell line SNU-475 (liver, hepatocellular_carcinoma)): 1
Compound Activity (1-inactive;2-active) [19]: 1
IC50 [19]: > 30 µM
IC50 (cell line SNU-626, central_nervous_system, astrocytoma_Grade_IV): > 30 µM
IC50 (cell line SNU-738, central_nervous_system, oligodendroglioma): > 30 µM
IC50 [20]: 25.7 µM
EC50 [20]: 25.7 µM
Compound Activity (1-inactive;2-active) (cell line SW48 (large_intestine, adenocarcinoma)): 1
Compound Activity (1-inactive;2-active) (cell line SW 1783 (central_nervous_system, astrocytoma_Grade_III)): 1
Compound Activity (1-inactive;2-active) (cell line THP-1 (haematopoietic_and_lymphoid_tissue, acute_myeloid_leukaemia)): 1
Compound Activity (1-inactive;2-active) (compound-level call): 1
Compound Activity (1-inactive;2-active) (compound-level call printed on every cell line row): 1
Compound Activity (1-inactive;2-active) (compound-level call, the same on every cell line's row): 1
Compound Activity (1-inactive;2-active) (compound-level flag): 1
Compound Activity (1-inactive;2-active) (compound-level flag repeated on every cell line row): 1
Compound Activity (1-inactive;2-active) (compound-level flag, printed on every cell line row): 1
Compound Activity (1-inactive;2-active) (flag of the compound): 1
Compound Activity (1-inactive;2-active) (overall call per compound): 1
Compound Activity (1-inactive;2-active) (overall class of the compound): 1
Compound Activity (1-inactive;2-active) (printed on every cell line row, same value for the compound throughout): 1
